Measured values published in publication doi:10.1101/2024.08.13.607785v1 (biorxiv, 2024).

Legend:
Design in all cases: species or system mixed lysate of K562, MV4-11, THP-1, NCI-H1155
[1] = biological target: Tyrosine-protein kinase Fyn ; FYN ; P06241 (Homo sapiens, UniProt P06241); conditions: DDA-MS residual binding; binder
[2] = biological target: Mitogen-activated protein kinase 14 ; MAPK14-2 ; Q16539-2 (Homo sapiens, UniProt Q16539); conditions: DDA-MS residual binding; binder
[3] = biological target: Serine/threonine-protein kinase LMTK2 ; LMTK2 ; Q8IWU2 (Homo sapiens, UniProt Q8IWU2); conditions: DDA-MS residual binding; binder
[4] = biological target: T1, Discoidin domain-containing receptor 2 ; DDR2 ; Q16832 (Homo sapiens, UniProt Q16832); conditions: binder
T1 sequence (Q16832 1-855): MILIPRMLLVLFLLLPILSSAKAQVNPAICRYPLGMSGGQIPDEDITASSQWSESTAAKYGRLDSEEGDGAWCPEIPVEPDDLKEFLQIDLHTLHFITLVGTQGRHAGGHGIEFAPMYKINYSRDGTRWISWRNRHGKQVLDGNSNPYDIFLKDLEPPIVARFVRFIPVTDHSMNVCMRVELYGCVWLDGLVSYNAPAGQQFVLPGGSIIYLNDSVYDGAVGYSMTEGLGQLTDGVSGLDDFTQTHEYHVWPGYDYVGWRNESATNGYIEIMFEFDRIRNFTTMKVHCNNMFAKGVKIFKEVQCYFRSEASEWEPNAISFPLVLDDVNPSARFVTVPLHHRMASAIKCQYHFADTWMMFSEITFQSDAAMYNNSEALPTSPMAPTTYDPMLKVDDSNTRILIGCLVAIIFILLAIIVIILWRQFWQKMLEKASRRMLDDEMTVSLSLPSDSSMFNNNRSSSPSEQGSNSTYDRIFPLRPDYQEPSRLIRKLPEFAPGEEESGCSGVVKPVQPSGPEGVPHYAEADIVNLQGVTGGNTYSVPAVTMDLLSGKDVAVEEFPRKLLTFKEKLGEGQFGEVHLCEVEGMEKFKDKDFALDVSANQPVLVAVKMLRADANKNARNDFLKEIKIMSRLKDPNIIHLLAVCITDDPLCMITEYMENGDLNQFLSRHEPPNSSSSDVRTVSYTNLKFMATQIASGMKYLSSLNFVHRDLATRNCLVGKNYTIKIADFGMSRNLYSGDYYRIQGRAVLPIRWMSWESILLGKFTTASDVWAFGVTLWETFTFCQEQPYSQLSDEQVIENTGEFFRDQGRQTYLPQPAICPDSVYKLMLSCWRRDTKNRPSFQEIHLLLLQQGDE

[5] = biological target: Isoform 3 of Serine/threonine-protein kinase SIK3 ; SIK3-7 ; Q9Y2K2-7 (Homo sapiens, UniProt Q9Y2K2); conditions: DDA-MS residual binding; binder
Sequence of Isoform 3 of Serine/threonine-protein kinase SIK3 ; SIK3-7 ; Q9Y2K2-7 (Q9Y2K2 whole entry, canonical isoform, one chain of several): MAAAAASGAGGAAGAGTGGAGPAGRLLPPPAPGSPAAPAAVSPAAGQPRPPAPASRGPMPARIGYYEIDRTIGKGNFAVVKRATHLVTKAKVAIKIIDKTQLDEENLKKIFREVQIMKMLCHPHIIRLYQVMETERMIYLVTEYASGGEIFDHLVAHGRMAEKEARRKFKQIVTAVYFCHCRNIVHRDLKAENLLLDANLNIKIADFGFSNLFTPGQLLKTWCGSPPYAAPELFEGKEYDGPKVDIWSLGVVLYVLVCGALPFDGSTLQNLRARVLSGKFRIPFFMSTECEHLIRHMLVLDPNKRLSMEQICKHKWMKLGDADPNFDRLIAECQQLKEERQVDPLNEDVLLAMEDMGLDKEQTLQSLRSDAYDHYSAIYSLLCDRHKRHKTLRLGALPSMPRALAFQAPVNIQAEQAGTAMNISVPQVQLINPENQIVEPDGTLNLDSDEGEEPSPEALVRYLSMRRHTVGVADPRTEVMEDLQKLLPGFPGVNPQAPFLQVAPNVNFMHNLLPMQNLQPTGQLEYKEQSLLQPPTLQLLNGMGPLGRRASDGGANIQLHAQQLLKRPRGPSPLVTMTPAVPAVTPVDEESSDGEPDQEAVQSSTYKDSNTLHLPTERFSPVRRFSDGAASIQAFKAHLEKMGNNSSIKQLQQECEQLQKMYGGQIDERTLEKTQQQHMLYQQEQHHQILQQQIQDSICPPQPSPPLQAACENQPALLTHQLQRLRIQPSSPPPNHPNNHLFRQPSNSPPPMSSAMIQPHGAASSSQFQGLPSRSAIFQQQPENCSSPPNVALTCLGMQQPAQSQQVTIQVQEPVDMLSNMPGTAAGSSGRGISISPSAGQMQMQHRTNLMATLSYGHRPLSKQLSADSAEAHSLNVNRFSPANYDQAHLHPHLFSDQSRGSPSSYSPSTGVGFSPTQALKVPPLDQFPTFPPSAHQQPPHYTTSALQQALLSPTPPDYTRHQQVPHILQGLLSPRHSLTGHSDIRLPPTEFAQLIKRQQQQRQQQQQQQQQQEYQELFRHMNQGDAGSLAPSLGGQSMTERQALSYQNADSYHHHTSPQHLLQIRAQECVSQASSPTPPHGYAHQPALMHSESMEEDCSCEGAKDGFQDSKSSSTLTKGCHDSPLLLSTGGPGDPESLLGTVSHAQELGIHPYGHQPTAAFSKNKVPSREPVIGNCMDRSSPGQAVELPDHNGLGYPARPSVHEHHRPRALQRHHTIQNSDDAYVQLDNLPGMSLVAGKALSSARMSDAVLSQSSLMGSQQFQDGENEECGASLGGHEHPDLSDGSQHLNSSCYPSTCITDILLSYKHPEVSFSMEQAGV

[6] = biological target: T2, Dual specificity mitogen-activated protein kinase kinase 3 ; MAP2K3 ; P46734 (Homo sapiens, UniProt P46734); conditions: DDA-MS residual binding; binder
T2 sequence (P46734 1-347): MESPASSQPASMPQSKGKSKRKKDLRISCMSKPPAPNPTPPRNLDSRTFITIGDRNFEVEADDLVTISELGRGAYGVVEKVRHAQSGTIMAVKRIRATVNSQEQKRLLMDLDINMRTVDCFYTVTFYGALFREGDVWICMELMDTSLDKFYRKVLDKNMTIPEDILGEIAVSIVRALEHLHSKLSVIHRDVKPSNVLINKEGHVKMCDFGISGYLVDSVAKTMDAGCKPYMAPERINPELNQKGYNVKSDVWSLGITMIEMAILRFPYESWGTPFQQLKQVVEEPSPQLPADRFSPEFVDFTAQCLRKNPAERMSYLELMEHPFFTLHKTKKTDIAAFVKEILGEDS

[7] = biological target: Tyrosine-protein kinase CSK ; CSK ; P41240 (Homo sapiens, UniProt P41240); conditions: binder
Sequence of Tyrosine-protein kinase CSK ; CSK ; P41240 (P41240 whole entry): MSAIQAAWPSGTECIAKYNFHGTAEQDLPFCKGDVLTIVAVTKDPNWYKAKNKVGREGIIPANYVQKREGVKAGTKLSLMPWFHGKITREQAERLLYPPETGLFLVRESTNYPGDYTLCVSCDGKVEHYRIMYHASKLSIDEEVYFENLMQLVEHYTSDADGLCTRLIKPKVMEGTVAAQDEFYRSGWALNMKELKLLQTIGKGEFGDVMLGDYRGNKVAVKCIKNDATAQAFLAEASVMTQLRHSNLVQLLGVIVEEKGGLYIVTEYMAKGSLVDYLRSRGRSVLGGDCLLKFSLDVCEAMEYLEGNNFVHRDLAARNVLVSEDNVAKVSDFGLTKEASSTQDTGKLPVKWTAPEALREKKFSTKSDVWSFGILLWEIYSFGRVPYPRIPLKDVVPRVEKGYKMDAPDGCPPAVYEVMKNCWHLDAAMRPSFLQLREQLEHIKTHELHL

[8] = biological target: Mitogen-activated protein kinase kinase kinase kinase 5 ; MAP4K5 ; Q9Y4K4 (Homo sapiens, UniProt Q9Y4K4); conditions: DDA-MS residual binding; binder
[9] = biological target: Ephrin type-A receptor 5 ; EPHA5 ; P54756 (Homo sapiens, UniProt P54756); conditions: DIA-MS residual binding; binder
Sequence of Ephrin type-A receptor 5 ; EPHA5 ; P54756 (P54756 whole entry, canonical isoform): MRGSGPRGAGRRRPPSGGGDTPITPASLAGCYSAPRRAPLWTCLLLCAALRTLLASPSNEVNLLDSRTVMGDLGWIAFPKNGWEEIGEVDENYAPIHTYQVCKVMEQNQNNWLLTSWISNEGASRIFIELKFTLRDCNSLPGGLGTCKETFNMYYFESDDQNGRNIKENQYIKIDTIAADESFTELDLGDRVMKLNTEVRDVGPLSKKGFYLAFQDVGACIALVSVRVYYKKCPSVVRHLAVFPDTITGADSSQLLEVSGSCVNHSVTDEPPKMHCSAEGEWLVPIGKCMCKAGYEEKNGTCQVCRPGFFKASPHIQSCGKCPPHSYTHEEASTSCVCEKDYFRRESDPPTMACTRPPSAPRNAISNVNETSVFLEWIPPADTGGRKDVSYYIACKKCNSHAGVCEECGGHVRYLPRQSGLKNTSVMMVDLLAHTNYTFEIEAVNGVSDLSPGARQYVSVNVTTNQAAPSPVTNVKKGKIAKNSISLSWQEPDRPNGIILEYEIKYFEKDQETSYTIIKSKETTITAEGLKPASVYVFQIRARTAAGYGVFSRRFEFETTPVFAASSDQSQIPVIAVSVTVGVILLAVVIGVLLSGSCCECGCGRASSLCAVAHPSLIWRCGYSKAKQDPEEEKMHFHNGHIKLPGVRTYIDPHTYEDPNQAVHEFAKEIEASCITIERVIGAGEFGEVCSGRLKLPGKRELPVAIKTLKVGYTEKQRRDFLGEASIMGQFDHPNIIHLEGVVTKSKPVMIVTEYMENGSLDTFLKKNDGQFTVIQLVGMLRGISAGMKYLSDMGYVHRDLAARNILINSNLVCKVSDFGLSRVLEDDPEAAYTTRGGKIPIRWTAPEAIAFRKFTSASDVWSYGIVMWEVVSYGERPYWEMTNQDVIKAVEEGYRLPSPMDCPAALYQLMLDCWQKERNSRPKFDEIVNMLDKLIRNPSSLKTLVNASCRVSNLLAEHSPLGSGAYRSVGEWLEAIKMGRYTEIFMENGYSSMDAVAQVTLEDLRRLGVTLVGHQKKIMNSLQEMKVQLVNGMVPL

[10] = biological target: Isoform 4 of Serine/threonine-protein kinase SIK3 ; SIK3-8 ; Q9Y2K2-8 (Homo sapiens, UniProt Q9Y2K2); conditions: DIA-MS residual binding; binder
Sequence of Isoform 4 of Serine/threonine-protein kinase SIK3 ; SIK3-8 ; Q9Y2K2-8 (Q9Y2K2 whole entry, canonical isoform, one chain of several): as the sequence (Q9Y2K2 whole entry, canonical isoform, one chain of several) above

[11] = biological target: Tyrosine-protein kinase Yes ; YES1 ; P07947 (Homo sapiens, UniProt P07947); conditions: binder
[12] = biological target: Proto-oncogene tyrosine-protein kinase receptor Ret ; RET ; P07949 (Homo sapiens, UniProt P07949); conditions: binder
Sequence of Proto-oncogene tyrosine-protein kinase receptor Ret ; RET ; P07949 (P07949 whole entry): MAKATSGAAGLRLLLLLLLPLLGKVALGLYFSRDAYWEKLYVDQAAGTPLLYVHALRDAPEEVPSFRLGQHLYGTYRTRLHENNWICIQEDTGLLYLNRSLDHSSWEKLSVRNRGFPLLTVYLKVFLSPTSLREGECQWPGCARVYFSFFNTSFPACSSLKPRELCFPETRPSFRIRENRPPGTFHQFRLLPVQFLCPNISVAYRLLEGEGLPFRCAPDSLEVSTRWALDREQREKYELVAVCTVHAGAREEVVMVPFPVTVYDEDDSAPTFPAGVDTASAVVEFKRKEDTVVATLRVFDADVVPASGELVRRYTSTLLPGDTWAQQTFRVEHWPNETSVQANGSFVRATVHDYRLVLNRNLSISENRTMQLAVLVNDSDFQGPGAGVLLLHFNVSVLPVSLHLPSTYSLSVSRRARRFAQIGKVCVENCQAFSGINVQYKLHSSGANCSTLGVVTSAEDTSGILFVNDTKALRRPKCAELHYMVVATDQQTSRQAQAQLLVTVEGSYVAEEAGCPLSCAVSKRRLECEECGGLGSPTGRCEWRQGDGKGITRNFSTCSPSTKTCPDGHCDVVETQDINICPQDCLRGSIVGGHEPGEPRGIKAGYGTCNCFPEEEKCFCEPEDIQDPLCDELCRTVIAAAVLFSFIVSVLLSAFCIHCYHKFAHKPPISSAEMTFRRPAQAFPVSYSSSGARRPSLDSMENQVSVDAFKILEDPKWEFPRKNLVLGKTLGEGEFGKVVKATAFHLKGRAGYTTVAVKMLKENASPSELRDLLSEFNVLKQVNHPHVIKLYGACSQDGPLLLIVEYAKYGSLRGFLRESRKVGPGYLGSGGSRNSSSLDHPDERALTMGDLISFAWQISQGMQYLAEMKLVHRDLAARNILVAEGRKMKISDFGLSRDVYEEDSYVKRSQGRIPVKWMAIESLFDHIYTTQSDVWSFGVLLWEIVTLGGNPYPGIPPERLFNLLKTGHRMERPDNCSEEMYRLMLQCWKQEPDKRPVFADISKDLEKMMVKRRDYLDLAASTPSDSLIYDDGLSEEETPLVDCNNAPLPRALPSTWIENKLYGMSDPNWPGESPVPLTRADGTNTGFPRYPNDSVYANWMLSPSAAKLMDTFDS

Sequence of Mitogen-activated protein kinase 14 ; MAPK14-2 ; Q16539-2 (Q16539 whole entry): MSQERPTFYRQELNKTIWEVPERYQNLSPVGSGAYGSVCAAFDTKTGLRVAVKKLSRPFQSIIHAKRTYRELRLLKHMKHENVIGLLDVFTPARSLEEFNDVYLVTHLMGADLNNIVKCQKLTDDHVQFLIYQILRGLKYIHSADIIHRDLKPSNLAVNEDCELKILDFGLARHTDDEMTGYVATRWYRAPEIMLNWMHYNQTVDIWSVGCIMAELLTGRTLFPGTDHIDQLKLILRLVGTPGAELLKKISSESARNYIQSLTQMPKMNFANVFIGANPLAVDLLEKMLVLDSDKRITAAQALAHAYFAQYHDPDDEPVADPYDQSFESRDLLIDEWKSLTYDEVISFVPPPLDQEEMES
Sequence of Tyrosine-protein kinase Fyn ; FYN ; P06241 (P06241 whole entry): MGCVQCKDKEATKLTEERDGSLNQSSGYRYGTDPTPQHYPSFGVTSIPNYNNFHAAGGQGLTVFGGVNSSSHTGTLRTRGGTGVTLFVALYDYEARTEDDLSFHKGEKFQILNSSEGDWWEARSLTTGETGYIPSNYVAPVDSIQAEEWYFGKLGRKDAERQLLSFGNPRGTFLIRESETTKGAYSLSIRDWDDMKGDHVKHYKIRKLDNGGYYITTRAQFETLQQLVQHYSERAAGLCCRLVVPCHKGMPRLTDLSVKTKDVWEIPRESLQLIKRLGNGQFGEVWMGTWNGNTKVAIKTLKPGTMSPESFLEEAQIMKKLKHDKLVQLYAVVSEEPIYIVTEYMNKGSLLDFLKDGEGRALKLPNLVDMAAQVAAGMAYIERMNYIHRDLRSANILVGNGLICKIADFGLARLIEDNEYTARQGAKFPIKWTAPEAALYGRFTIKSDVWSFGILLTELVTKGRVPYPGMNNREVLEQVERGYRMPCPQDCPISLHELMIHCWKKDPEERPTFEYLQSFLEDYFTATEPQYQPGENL

Compound: Cc1nc(Nc2ncc(C(=O)Nc3c(C)cccc3Cl)s2)cc(N2CCN(CCO)CC2)n1 [dasatinib]
- DDA-MS / % Intensity (30 µM/DMSO) [1]: 1.698%
- DDA-MS / % Intensity (30 µM/DMSO) [2]: 29.04%
- DDA-MS / % Intensity (30 µM/DMSO) [3]: 9.69%
- DDA-MS / % Intensity (30 µM/DMSO) [4]: 10.23%
- DDA-MS / % Intensity (30 µM/DMSO) [5]: 6.597%
- DDA-MS / % Intensity (30 µM/DMSO) [6]: 35.23%
- DDA-MS / % Intensity (30 µM/DMSO) [7]: 0.3688%
- DDA-MS / % Intensity (30 µM/DMSO) [8]: 24.77%
- DIA-MS / % Intensity (30 µM/DMSO) [9]: 0.4604%
- DIA-MS / % Intensity (30 µM/DMSO) [10]: 10.64%
- DIA-MS / % Intensity (30 µM/DMSO) [11]: 2.565%
- DIA-MS / % Intensity (30 µM/DMSO) [12]: 41.37%
